According to patent US5840690A, “Regulation of cell proliferation and differentation using peptides” (priority 1995, dated 1998):

Legend:
[1] = test system: psoriasis; conditions: provided either orally or topically; cited from earlier work
[2] = test system: tumor cells (for example, HL-60, U937, and M-1); conditions: tumor cells that possess a receptor for 1,25(OH)2 D3; cited from earlier work
[3] = test system: cultured human keratinocytes; assay: Keratinocyte culture: counts of total cells, basal cells and cornified envelopes; type: cell-based
Procedure: Keratinocytes were grown in culture as follows. NIH 3T3 cells were plated at 0.5×10^5 cells per 35-mm tissue-culture dish, and two days later were lethally irradiated with a cobalt-60 source (5000 rads). Keratinocytes were obtained from neonatal foreskin after overnight trypsinization at 4° C. and treatment with 0.02% EDTA. Keratinocytes were plated in 2 ml of serum-free medium per dish on the lethally irradiated 3T3 cells. Each experiment was performed on primary or secondary keratinocyte cultures obtained from different skin samples.
In addition, 1,25-(OH)2 D3 was tested, alone and in combination with PTH (7-34), and PTH (1-34) and PTH (7-34) were tested together.
Beginning at one week in culture, groups of triplicate plates of keratinocytes were incubated with the aforementioned compounds or vehicle alone. After one week of dosing, the medium was removed from each culture and centrifuged, and the pellet was resuspended for the counting of the desquamated floater cells. A hemacytometer was used to count the different cell types under a phase-contrast microscope. The attached cells were then trypsinized for 30-40 min with 0.1 EDTA and 0.1% trypsin and then neutralized with medium. The keratinocytes were pelleted and resuspended in a known volume of medium. Duplicate aliquots were taken for counting the basal (small, rounded) and squamous (larger, irregular-shaped, flattened) cells. The remaining cells were pelleted and treated with 10 mM Tris-HCl (pH 7.4) with 1% beta-mercaptoethanol and 1% sodium dodecyl sulfate (SDS) at room temperature for 10 min. Only cells with cornified envelopes were present after this treatment.
Each culture was thus evaluated for its total cell content, number of basal cells, and cornified envelopes, as described above.

[4] = test system: cultured human keratinocytes; conditions: cited from earlier work
[5] = test system: cultured human fibroblasts; conditions: cited from earlier work

## C=C1/C(=C\C=C2/CCC[C@]3(C)[C@@H]([C@H](C)CCCC(C)(C)O)CC[C@@H]23)C[C@@H](O)C[C@@H]1O [1,25(OH)2 D3, 1,25-dihydroxyvitamin D3]
[1]
  value in the treatment of psoriasis: of value in the treatment of psoriasis
[2]
  differentiation of tumor cells: induces them to differentiate
  proliferation of tumor cells: inhibits their proliferation
[3]; 1,25(OH)2 D3 alone, one week of dosing, FIGS. 2-5
  total number of cells and number of basal cells: decreased in a dose-dependent manner
[3]; compound alone, FIGS. 6 and 7
  total number of cornified envelopes, percent of control: increased, in a dose-dependent manner
[4]
  proliferation of cultured human keratinocytes: inhibits the proliferation
  terminal differentiation of keratinocytes: induces keratinocytes to terminally differentiate
[5]
  proliferation of cultured human fibroblasts: inhibits the proliferation
